Literature values as cited in US8187607B2, “Hapten-carrier conjugates and uses thereof” (Cytos Biotechnology AG, priority 2002, dated 2012).

System: cigarette smokers
Settings: at 12 months

SMILES: CC(NC(C)(C)C)C(=O)c1cccc(Cl)c1 (stereo not shown) [bupropion]
- Abstinence rates: about 30%
